We go through six compounds from article PMC10900215 (JACS Au, 2024).

In one series the target is PRDM9 (Homo sapiens, UniProt Q9NQV7). Nature of the series: Protein methyltransferases selectivity profile. The format is biochemical. Particulars: control compound. The source says: (§1) Remaining activity [%][a]
(§2) Methyltransferase Control IC50 (M) Control […]
(§3) concerning the buffer solution containing DMSO. The closer to 100% these values are, the weaker the […]
(§4) Table S2. Hook curve amplitudes derived from the TR-FRET ternary complex formation assay with all compounds in the paper. n = number of independent measurements (biological replicates).
(§5) Compound amplitude n Compound amplitude n […]

Series [1] has as its target T1, METTL3 (Homo sapiens, UniProt Q86U44).
T1 construct: METTL3–14 degradation up to 70% of the endogenous level; endogenous in cells; host or cells: MOLM-13, PC3, DU145
The experiment in a line: Cellular degradation assay (Western blot), METTL3 in MOLM-13. The class given is cell-based. In short, it runs like this:
(§6)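 24h PROTAC exposure (DMSO 0.1% v/v control), 37 °C, 5% CO2; RIPA lysis, SDS-PAGE, nitrocellulose, anti-METTL3/anti-METTL14 blots, GAPDH/β-actin loading controls, IR imaging, densitometry.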
(In western blotting, separated proteins are transferred to a membrane and probed.)

Series [2] deals with T2, ternary complex CRBN/PROTAC/METTL3–14 (Homo sapiens, UniProt Q86U44+Q96SW2).
T2 construct: methyltransferase domains (MTD) of METTL3 (residues 354–580); His6 (N, cleaved yes); made in house; host or cells: METTL3-MTD/METTL14-MTD: baculovirus/Sf9; CRBN-TBD: E. coli Rosetta (DE3), co-expressed with BirA
The experiment in a line: FRET-based ternary complex formation assay (TCFA). The class given is binding. The essentials:
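HTRF/TR-FRET measurement of PROTAC-induced complex between GST-tagged METTL3–14 and biotinylated CRBN^TBD-Avi (10 nM final) with 0.8 nM Eu^3+ anti-GST antibody, in 50 mM HEPES pH 7.5, 150 mM NaCl, 0.1% BSA, 100 mM KF. Emission ratio used; ECmax and Hook-curve amplitude taken from Gaussian fit or highest-signal data point.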

A further series has as its system METTL14. Nature of the series: Cellular degradation assay (Western blot), METTL14 in MOLM-13. The format is cell-based, human. Particulars: MOLM-13, 24 h, 2 μM compound. The essentials:
as §6

A short description of series [3]: Cell viability assay (CellTiter-Glo) on MOLM-13. The format is cell-based. Particulars: human, MOLM-13 cells, average of two biological replicates. In short, it runs like this:
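MOLM-13 AML cells grown in RPMI 1640 with 10% FBS at 37 °C, 5% CO2. Viability read as ATP luminescence by CellTiter-Glo after 10 min at room temperature, with background from cell-free medium wells subtracted.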
On the technique in general: Cellular ATP, detected with luciferase, serves as a proxy for viable cell number.

Series [4] has as its target T3, METTL3-14 (Homo sapiens, UniProt Q86U44). The experiment in a line: Cellular degradation assay (Western blot), METTL3 and/or METTL14 (METTL3–14) in MOLM-13. The class given is cell-based. Further details: METTL3–14 degradation up to 70% of the endogenous level; endogenous in cells; host or cells: MOLM-13, KASUMI-1, THP-1, NOMO-1. Particulars: for degradation of METTL3 and/or METTL14: MOLM-13, 2 μM, 24 h, Western blot. The method, then:
MOLM-13, NOMO-1, THP-1, Kasumi-1, PC3, and DU145 cell lines were obtained from DSMZ-German Collection of Microorganisms and Cell Cultures GmbH. […] All cell lines were tested negative for mycoplasma contamination (PCR-based assay by Microsynth, Switzerland).
METTL3 (and METTL14) protein degradation was monitored by Western blot. Cells were treated with the indicated concentration of PROTACs or DMSO control (0.1% (v/v)) for 24h, 37 °C with 5% CO2. […] After SDS-PAGE, proteins were transferred to a nitrocellulose membrane, blocked (with 5% milk, 0.5% BSA in TBST buffer), and incubated overnight with primary antibodies. […] Densitometry was performed in Image Studio Lite software and analyzed in GraphPad Prism 9.
Target sequence in this assay (Q86U44 2-580 limits assumed): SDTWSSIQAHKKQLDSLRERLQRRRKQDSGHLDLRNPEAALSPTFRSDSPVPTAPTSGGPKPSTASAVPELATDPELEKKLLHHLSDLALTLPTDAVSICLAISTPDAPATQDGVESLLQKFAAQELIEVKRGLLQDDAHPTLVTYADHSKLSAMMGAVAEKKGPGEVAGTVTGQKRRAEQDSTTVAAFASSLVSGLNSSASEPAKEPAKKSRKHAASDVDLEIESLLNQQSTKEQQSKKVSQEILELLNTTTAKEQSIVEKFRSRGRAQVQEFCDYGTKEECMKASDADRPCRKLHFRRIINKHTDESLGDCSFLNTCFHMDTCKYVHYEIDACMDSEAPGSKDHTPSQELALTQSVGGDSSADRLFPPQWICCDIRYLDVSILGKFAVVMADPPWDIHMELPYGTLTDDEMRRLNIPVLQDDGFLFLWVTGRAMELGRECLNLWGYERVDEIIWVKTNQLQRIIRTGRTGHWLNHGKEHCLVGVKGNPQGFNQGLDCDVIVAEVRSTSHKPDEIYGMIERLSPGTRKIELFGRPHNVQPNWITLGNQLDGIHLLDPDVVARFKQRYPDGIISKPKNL
Target sequence in this assay (Q9HCE5 whole entry partner): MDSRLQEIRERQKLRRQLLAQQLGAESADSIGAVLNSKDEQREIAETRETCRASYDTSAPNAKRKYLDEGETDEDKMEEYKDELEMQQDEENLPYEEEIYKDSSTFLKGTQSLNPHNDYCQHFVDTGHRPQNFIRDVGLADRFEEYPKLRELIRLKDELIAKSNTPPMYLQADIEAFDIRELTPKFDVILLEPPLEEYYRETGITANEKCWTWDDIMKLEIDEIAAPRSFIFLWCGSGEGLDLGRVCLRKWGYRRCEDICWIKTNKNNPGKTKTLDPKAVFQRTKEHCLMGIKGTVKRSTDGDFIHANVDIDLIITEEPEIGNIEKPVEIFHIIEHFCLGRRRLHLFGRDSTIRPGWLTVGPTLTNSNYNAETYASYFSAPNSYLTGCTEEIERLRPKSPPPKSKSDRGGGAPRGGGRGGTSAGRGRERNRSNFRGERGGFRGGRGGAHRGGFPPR

The next series concerns the target SETD2 (Homo sapiens, UniProt Q9BYW2). Nature of the series: Protein methyltransferases selectivity profile. The class given is biochemical. Particulars: control compound.
Excerpt: as §1, §2, §3, §4, §5

In the next series the target is SMYD3 (Homo sapiens, UniProt Q9H7B4). Nature of the series: Protein methyltransferases selectivity profile. The class given is biochemical. Particulars: control compound.
Excerpt: as §1, §2, §3, §4, §5

In series [5] the target is T3, METTL3-14. The experiment in a line: Protein methyltransferases selectivity profile. The format is biochemical.
Excerpt: as §1, §2, §3, §4, §5

The next series concerns PC3 cell line. Nature of the series: Cell viability assay (CellTiter-Glo) on PC3. The format is cell-based, human. As for the experimental part: MOLM-13, NOMO-1, THP-1, Kasumi-1, PC3, and DU145 cell lines were obtained from DSMZ-German Collection of Microorganisms and Cell Cultures GmbH. Cells were cultured in RPMI 1640 medium (11875093, Thermo Fisher Scientific) containing 10% FBS (16140071, Thermo Fisher Scientific) and 1% penicillin-streptomycin (15140122, Thermo Fisher Scientific) in 5% CO2 at 37 °C in a humidified incubator, with maintained cell densities at 0.5–1 × 10^6 cells/mL. All cell lines were tested negative for mycoplasma contamination (PCR-based assay by Microsynth, Switzerland).
Cells were seeded in white clear-bottom 96-well plates at a density of 6–20 × 10^3 cells/well in 50 μL of the complete RPMI medium and treated with 50 μL of increasing concentrations of the indicated compounds dissolved in DMSO (final concentration of compounds 0.01–10 μM) or DMSO only as a negative control (0.01% (v/v)) and incubated for 72 h at 37 °C with 5% CO2. Cell viability was determined using a CellTiter-Glo luminescent cell viability assay (Promega) based on the detection of ATP according to the manufacturer’s instructions. 100 μL of the reagent was added to each well and incubated for 10 min at room temperature. The luminescence was recorded using a Tecan Infinite […] M1000 microplate reader from the top. Background luminescence value was obtained from wells containing the CellTiter-Glo reagent and medium without cells. The resulting data was analyzed in GraphPad Prism 9.

For another series, the target named is T4, Cereblon (CRBN) (Homo sapiens, UniProt Q96SW2).
T4 construct: endogenous in cells; host or cells: MOLM-13
Nature of the series: Cellular thermal shift assay (CETSA) in MOLM-13, Cereblon. The format is cell-based. The note with it: MOLM-13, 54 °C.

The target of series [6] is T1, METTL3. Nature of the series: Cellular thermal shift assay (CETSA) in MOLM-13, METTL3. The format is cell-based. The note with it: MOLM-13, 54 °C. The method, then:
One million of MOLM-13 cells were suspended in 100 μL of PBS (10010023, Thermo Fisher Scientific) containing 2× protease inhibitor cocktail (11697498001, Roche), for each condition tested. Cells were incubated with compounds or DMSO control (1% (v/v)) for 1 h at 37 °C. They were then heat treated at 54 °C in a thermoblock for 3 min, followed by cooling to room temperature (3 min). Next, samples were lysed by threefreeze–thaw cycles in liquid nitrogen and centrifuge at 16000 g for 30 min, 4 °C. Equal volumes of control and tested samples (12 μL) were analyzed by Western blot. The changes in the amount of METTL3 protein (after normalization for β-actin and/or GAPDH) were monitored by performing densitometry in Image Studio Lite software and analyzed in GraphPad Prism 9.

The target of series [7] is T5, METTL3 (Homo sapiens, UniProt Q86U44+Q96SW2).
T5 construct: Human full-length METTL3-METTL14 was expressed and purified as described above; Human full-length cereblon-DDB1 and 6xHis-CUL4A-6xHis-RBX1 were coexpressed; StrepII (N); GFP (N); TEV site (N); made in house; host or cells: baculovirus/Sf9 insect cells (METTL3-METTL14, cereblon-DDB1, CUL4A-RBX1)
Nature of the series: In vitro ubiquitination assay, METTL3. Particulars: 2, 8, and 32 μM, 30 °C, 2 h. The format is biochemical. As for the experimental part: For the cell-free in vitro ubiquitination of METTL3-METTL14 purified E1, E2, ubiquitin, CUL4A-RBX1, Cereblon-DDB1, and METTL3-METTL14 were used. Human full-length METTL3-METTL14 was expressed and purified as described above. […] Purified recombinant human UBE1 E1 (E-305–025) was purchased from R&D Systems, UbcH5a E2 (23–029) from Merck and ubiquitin (SBB-UP0013) from South Bay Bio. For the ubiquitination reaction, components were mixed to final concentrations of 0.06 μM UBE1, 1.96 μM UbcH5a, 39 μM ubiquitin, 0.33 μM CUL4A-RBX1, 0.33 μM Cereblon-DDB1, 0.5 μM METTL3-METTL14, and different concentrations of compound 14 or me-14 (0, 2, 8, or 32 μM) in reaction buffer (50 mM Tris-HCl pH 7.6, 5 mM MgCl2, 0.2 mM CaCl2, 1 mM DTT, 100 mM NaCl, 0.01% BSA, 0.01% Triton X-100). The final reaction volume was 15 μL. After the addition of 2 mM ATP (or the equal volume of water for the control without ATP), the reaction mixture was incubated for 2 h at 30 °C. […] The signals were quantified by using the Image Studio Lite software. To determine the percentage of ubiquitinated METTL3, the fraction of unmodified METTL3 was calculated by dividing the signal of the band assigned to unmodified METTL3 by the signal of the area containing both the unmodified and (poly)ubiquitinated METTL3 and normalizing to the control without ATP. […]

Series [8] addresses His-GST-METTL3^MTD-METTL14^MTD (human) (UniProt Q86U44).

Several values for one entry are separate records, joined by “and”; a condition that tells them apart may be missing. Equal values may be shown once. Entries after “also recorded” stand apart in the source; their conditions may differ.

T1 sequence (Q86U44 2-580 limits assumed): as the sequence (Q86U44 2-580 limits assumed) above
T1 sequence (Q9HCE5 whole entry partner): as the sequence (Q9HCE5 whole entry partner) above
T2 sequence (Q86U44 354-580): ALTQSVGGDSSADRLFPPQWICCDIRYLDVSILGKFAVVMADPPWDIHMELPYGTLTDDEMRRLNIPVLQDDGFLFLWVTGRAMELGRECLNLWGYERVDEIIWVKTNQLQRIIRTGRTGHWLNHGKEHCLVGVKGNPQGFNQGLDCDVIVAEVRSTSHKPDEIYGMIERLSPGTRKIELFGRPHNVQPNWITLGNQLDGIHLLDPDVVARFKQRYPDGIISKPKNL
T2 sequence (Q9HCE5 107-395 partner limits assumed): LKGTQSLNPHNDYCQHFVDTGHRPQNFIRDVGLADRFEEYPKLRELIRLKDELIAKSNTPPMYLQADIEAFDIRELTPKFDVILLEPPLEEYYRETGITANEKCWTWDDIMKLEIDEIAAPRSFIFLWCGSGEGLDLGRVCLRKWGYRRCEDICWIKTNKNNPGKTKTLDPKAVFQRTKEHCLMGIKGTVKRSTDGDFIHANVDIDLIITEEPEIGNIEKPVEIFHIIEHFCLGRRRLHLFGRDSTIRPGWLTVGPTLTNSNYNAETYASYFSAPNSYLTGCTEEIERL
T2 sequence (Q96SW2 318-442): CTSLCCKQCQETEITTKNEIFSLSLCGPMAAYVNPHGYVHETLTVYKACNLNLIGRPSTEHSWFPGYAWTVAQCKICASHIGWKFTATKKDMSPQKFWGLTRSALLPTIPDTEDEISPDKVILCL
Sequence of His-GST-METTL3^MTD-METTL14^MTD (human) (Q86U44 354-580, chain 1 of 2): as the sequence (Q86U44 354-580) above
Sequence of His-GST-METTL3^MTD-METTL14^MTD (human) (chain, as listed by the source, chain 2 of 2): as the sequence (Q9HCE5 107-395 partner limits assumed) above
Sequence of SMYD3 (Q9H7B4 whole entry): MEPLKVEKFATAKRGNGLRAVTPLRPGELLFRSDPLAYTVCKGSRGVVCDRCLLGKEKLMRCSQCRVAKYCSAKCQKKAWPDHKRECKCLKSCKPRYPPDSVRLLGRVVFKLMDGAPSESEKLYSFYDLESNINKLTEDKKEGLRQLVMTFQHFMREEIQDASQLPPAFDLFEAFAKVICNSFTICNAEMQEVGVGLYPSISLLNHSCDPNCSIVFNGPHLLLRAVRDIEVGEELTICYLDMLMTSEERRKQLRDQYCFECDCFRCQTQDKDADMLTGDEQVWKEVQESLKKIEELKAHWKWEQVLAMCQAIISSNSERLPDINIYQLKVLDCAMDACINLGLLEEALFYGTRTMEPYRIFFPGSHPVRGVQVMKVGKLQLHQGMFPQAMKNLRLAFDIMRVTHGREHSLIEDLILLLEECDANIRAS
Sequence of SETD2 (Q9BYW2 whole entry, species assumed): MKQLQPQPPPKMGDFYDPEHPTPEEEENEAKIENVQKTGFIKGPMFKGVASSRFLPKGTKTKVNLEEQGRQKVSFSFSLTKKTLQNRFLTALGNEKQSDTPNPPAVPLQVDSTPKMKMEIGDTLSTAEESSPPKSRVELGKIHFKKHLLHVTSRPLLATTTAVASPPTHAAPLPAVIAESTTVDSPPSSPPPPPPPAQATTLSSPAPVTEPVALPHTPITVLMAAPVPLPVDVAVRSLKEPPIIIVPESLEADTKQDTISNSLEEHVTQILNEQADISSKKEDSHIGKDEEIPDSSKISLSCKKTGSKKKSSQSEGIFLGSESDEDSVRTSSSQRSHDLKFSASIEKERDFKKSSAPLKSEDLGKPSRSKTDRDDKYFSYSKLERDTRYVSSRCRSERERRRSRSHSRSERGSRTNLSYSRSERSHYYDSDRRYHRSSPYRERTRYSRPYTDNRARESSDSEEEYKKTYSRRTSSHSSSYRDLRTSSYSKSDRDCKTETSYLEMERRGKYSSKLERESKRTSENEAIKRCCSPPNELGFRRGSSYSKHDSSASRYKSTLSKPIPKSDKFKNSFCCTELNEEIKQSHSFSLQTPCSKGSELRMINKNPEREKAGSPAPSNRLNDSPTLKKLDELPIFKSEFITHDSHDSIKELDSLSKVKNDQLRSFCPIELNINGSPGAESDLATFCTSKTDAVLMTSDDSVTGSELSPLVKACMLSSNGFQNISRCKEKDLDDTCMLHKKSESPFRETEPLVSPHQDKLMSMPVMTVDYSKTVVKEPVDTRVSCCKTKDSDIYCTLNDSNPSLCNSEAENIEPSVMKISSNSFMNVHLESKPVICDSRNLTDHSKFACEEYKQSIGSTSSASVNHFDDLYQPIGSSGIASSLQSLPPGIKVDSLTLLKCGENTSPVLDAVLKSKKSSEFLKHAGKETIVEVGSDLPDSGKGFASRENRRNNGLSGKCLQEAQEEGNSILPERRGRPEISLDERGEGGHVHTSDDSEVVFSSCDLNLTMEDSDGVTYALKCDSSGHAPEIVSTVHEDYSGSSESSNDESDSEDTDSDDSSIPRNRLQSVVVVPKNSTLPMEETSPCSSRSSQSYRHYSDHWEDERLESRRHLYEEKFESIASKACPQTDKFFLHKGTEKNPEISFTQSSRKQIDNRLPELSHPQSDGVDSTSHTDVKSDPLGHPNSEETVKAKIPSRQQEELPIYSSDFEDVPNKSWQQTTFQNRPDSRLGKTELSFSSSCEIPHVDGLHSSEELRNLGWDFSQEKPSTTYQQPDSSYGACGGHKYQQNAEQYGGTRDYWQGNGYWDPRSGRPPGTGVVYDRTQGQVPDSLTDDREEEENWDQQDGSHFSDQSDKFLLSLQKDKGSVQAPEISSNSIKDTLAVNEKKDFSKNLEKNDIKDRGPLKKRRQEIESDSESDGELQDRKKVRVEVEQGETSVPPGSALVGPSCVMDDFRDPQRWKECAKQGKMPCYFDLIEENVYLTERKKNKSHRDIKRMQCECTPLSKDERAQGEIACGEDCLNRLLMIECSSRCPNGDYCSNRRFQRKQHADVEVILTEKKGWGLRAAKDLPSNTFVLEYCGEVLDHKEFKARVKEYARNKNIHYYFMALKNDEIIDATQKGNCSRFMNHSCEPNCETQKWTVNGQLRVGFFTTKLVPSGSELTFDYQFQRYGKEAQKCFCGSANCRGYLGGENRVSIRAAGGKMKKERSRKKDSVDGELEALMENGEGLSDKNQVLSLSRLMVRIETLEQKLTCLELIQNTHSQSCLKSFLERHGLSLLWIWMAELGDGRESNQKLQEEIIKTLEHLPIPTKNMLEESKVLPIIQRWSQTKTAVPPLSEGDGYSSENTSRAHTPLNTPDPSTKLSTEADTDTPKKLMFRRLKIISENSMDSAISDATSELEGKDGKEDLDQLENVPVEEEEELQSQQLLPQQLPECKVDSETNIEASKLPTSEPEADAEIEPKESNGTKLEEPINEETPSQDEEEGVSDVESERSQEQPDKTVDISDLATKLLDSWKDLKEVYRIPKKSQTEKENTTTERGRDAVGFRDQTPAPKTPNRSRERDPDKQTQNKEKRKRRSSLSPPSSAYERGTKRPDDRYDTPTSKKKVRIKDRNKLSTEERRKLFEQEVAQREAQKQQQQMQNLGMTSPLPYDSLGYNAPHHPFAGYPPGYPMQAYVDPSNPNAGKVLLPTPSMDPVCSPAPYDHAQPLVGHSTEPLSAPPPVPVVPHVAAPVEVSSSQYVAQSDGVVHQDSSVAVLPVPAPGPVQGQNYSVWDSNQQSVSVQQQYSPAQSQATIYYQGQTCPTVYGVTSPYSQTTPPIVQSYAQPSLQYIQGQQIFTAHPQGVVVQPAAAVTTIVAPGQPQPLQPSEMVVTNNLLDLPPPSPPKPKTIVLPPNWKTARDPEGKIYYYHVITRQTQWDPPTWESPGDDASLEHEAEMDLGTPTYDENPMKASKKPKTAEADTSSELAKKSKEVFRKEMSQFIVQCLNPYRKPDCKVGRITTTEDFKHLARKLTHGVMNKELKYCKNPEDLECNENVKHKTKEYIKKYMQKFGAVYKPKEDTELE

A word on the IC50: it is the concentration that inhibits the measured activity by half. A lower IC50 goes with inhibition by little substance. At PRDM9, `CN1C(=O)[C@@]23C[C@]4([C@]56C[C@@]78SS[C@@](CO)(C(=O)N7[C@H]5Nc5ccccc56)N(C)C8=O)c5ccccc5N[C@@H]4N2C(=O)[C@]1(CO)SS3` [Chaetocin] yielded an IC50 of 905 nM.
The viability is a per cent measure of how many cells are alive, often set against a control. The low end stands for more harm to the cells, the high end for less harm to the cells. Consider `CC1(C)CCN(Cc2cc(F)c(N3CC(=O)NC4(CCN(c5cc(NCCN6CCN(c7cnc(N8CCN(C(=O)CCCNc9cccc%10c9C(=O)N(C9CCC(=O)NC9=O)C%10=O)CC8)nc7)CC6)ncn5)CC4)C3)cc2F)CC1` (stereo not shown) [Compound 33], for which, on METTL3 [1] (MOLM-13, 24 h, 2 μM compound), the “MOLM-13 West. blot at 24h 2 μM comp conc. Degradation (%) of METTL3” value was 44% and 44 ± 6%. Also, the “TCFA amplitude (mean ± SEM)” value in series [2] (Hook curve amplitude, fraction of the maximum of compound 16) came to 0.8 ± 0.1. The “ECmax (nM) ± SD” value in [2] (PROTAC concentration at the maximum of the signal in the TCFA) is 70 ± 10 nM. Also, the “MOLM-13 West. blot at 24h 2 μM comp conc. Degradation (%) of METTL14” value in the series with METTL14 was determined as 51 ± 19%. Besides, the viability at 72 h, 0.6 µM in [3] (0.6 µM) was found to be 92.1%. The compound further registered a viability at 72 h, 1.25 µM in series [3] (1.25 µM) of 90.9%. Besides, in series [3] (2.5 µM), the viability at 72 h, […] was 95.3%. This compound also displayed a viability at 72 h, 5 µM in [3] (5 µM) of 97.7%. In series [3] (10 µM), this compound gave a viability at 72 h, 10 µM of 89.6%. For the same compound, the “degradation of METTL3 and/or METTL14” value on METTL3-14 [4] is recorded as “at least 50%”.
Turning to `Nc1ncnc2c1ncn2[C@@H]1O[C@H](CSCC[C@H](N)C(=O)O)[C@@H](O)[C@H]1O` [SAH, S-(5’-adenosyl)-L-homocysteine], the results for the IC50 at SETD2, against SMYD3 and on METTL3-14 [5] were 1380 nM, 8.48 µM and 153 nM, respectively.
With `CNc1cc(N2CCC3(CC2)CN(c2cc(F)c(CN4CCC(C)(C)CC4)cc2F)CC(=O)N3)ncn1` [UZH2, reference compound], the “activity / signal in the ternary complex formation assay” value in [2] is “no activity”. In addition, on METTL3-14 [4] (MOLM-13, 10 μM UZH2 control without PROTAC), the “METTL3–14 levels” value is “elevated levels of METTL3–14”. In addition, in the series with PC3 cell line, the antiproliferative effect entry is recorded as “not”.
`CN1C(=O)CCC(N2C(=O)c3cccc(NCCCC(=O)NCc4cccc(CNc5cc(N6CCC7(CC6)CN(c6cc(F)c(CN8CCC(C)(C)CC8)cc6F)CC(=O)N7)ncn5)c4)c3C2=O)C1=O` (stereo not shown) [me-14]: the “stabilization of Cereblon (CETSA)” value on Cereblon (CRBN) is reported as “not of CRBN”. For the same compound, on METTL3 [1] (MOLM-13, 10 μM), the METTL3 levels entry is given as “increased METTL3 levels”. Also, on METTL3 [6], the “stabilization of METTL3 (CETSA)” value is recorded as “stabilize METTL3 in a concentration-dependent manner; also recorded: stabilization of METTL3”. Further, the “degradation of METTL3 and/or METTL14” value on METTL3-14 [4] was “did not show any METTL3–14 degradation”. Moreover, the “degradation of METTL3 and METTL14, concentration dependence” value at METTL3-14 [4] (MOLM-13, five concentrations) was “no degradation”. Further, on METTL3 [7], the “ubiquitination of METTL3 compared to the control without compound” value is reported as “does not increase”.
“CRBN^TBD-Avi(biotin) (from UniProt Q96SW2 318-442) (domain or fragment)”: in [8], the degradation of METTL3 and METTL14 in MOLM-13 cells (Western blot) with PROTAC 30 at five concentrations; Hook effect turned out to be 60%; the degradation of METTL3 in MOLM-13 cells (Western blot) with PROTAC 14 at five concentrations; Hook effect is 50%.
